Laboratory results taken from patent US20030134774A1, “Methods for inhibiting cardiac disorders” (priority 2001, published 2003).

Experiments:
[1] = tested on: cardiomyocytes; assay: TUNEL assay of apoptosis in cardiomyocyte cultures; format: cell-based, rat; settings: 500 μM, 24 hr
Experimental: rPMT increases H2O2-induced apoptosis in cardiomyocyte cultures. Cells were treated without or with rPMT (400 ng/ml) for 24 hr followed by H202 (500 μM) for 24 hr. The percentage of cells undergoing apoptosis was measured by TUNEL assay as described in Methods below. Data are from a single experiment and are representative of results obtained on 3 separate culture preparations.
TUNEL staining was performed for detection of apoptotic cells according to manufacturer's instructions (Boehringer). Approximately 500 cardiomyocytes were imaged by fluorescence microscopy and the number of cells that scored TUNEL-positive is presented as a percentage of total.

[2] = tested on: PKCδ and PKCε; assay: Immunoblot of nPKC isoform abundance in cardiomyocytes; format: cell-based, rat; settings: 24 hr stimulation
Experimental: (§1) rPMT selectively activates nPKC isoforms. Cardiomyocyte cultures were incubated in culture medium without or with NE (10 μM), rPMT (400 ng/ml) or PMA (100 nM) for 24 hr (Panels A and C) or 5 min (Panel B). Soluble extracts were prepared and separated by SDS-PAGE followed by immunodetection of total PKC isoform abundance with antibodies that are specific for the individual PKC isoforms (Panel A), or phosphorylated forms of PKC (largely PKCε) with a pan-phospho-PKC antibody (Panels B and C), as described in Methods below. GF109203 was included at 5 μM 30 min prior to stimulation as indicated.
(§2) Cells were maintained in culture in the presence of 10% FCS for 96 hr and then switched to serum-free medium for 24 hr prior to the addition of agonists as indicated. For PKC, extracts were prepared and subjected to SDS-PAGE to resolve individual isoforms according to methods described previously (14).
(§3) Specific immunoreactivity for individual PKC isoforms was quantified according to methods described previously. […] Bands were detected by enhanced chemiluminescence and blots were quantified by laser scanning densitometry.

[3] = tested on: PKCα and PKCλ; assay: Immunoblot of PKCα/PKCλ abundance and distribution in cardiomyocytes; format: cell-based, rat; settings: 24 hr stimulation
Experimental: as §1, §2, §3

[4] = target: T1, PKC-ε (Rattus norvegicus, UniProt P09216); assay: Western blot with anti-phospho-PKC antibody in cardiomyocytes; format: cell-based; settings: NE 10 μM or PMA 100 nM for 5 min
T1 construct: PKCε is detected as a single band in quiescent cardiomyocytes; endogenous in cells; host or cells: cultured neonatal rat ventricular cardiomyocytes
T1 sequence (P09216 1-737): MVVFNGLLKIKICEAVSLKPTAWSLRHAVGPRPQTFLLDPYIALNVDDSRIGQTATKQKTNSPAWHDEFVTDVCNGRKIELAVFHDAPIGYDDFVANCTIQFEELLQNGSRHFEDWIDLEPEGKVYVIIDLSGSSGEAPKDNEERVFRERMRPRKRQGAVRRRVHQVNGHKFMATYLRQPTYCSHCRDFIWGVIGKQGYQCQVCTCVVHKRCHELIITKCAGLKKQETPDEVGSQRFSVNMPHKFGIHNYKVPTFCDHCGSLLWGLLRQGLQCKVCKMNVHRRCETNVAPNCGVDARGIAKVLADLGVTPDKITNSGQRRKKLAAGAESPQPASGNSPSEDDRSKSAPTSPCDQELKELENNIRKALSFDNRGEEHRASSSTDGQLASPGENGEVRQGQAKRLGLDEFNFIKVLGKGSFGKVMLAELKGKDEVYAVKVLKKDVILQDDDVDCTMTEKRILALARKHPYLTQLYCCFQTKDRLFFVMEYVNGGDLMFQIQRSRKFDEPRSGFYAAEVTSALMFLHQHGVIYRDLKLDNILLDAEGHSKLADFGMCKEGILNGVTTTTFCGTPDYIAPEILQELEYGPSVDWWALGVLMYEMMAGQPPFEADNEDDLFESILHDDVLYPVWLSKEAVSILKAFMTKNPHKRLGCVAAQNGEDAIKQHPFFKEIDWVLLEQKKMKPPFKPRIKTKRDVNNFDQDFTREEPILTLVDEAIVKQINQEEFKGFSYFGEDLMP
Experimental: as §1
(§4) Specific immunoreactivity for individual PKC isoforms was quantified according to methods described previously. For assays of MAPKs and AKT, cells were exposed to test agents as indicated in individual experimental protocols, washed three times with ice-cold calcium/magnesium-free Dulbecco's PBS (pH 7.1), scraped into ice-cold extraction buffer [20 mM β-glycerophosphate pH 7.5, 20 mM sodium fluoride, 2 mM EDTA, 0.2 mM sodium vanadate, 10 μg/ml aprotinin, 25 μg/ml leupeptin, 50 μg/ml PMSF, and 0.3% (v/v) β-mercaptoethanol], lysed by sonication, and centrifuged at 10,000 g for 10 min at 4° C. The supernatant was diluted in SDS-PAGE sample buffer, boiled for 5 min, and stored at −70° C. Western blot analysis was performed with antibodies that are selective for the phosphorylated (activated) forms of ERK1/2, p38-MAPK, JNK, AKT, and pan-PKC according to manufacturer's instructions. For each panel in each Figure, the results are from a single gel exposed for a uniform duration. Bands were detected by enhanced chemiluminescence and blots were quantified by laser scanning densitometry.

[5] = tested on: cardiomyocytes; assay: Cardiomyocyte growth: sarcomeric organization and cell size; format: cell-based, rat; settings: rPMT 400 ng/ml or NE 10 μM, 48 hr, serum-free
Experimental: (§5) rPMT mimics the effect of norepinephrine to promote cardiomyocyte hypertrophy. Cardiomyocytes were cultured in serum-free medium without or with rPMT (400 ng/ml) or norepinephrine (NE, 10 μM) for 48 hr. Cardiomyocytes were fixed, permeabilized, and stained with monoclonal anti-α-actinin sarcomeric (Panel A, magnification×100) or subjected to Northern blot analysis for measurements of steady-state ANF mRNA expression (Panel B). Effects of rPMT (black bars) and NE (gray bars) vs. vehicle (white bars) on sarcomeric organization (Panel C), cell size (Panel D), and protein synthesis (Panel E) are illustrated (n=3 for each).
Cardiomyocyte growth was assessed by measuring cell surface area by digitized image analysis. For each experimental point, 7-10 frames/dish were recorded at 40× magnification with a video camera attached to a Nikon microscope which was calibrated with a micrometer.
Cardiomyocytes were grown on slides precoated with fibronectin. After treatment, cells were fixed with cold methanol and permeabilized with 0.1% Triton X-100 and 0.2% BSA. Cells were incubated with α-actinin monoclonal antibody overnight at 4° C. followed by anti-mouse IgG-Cy3-labeled antibody for 30 min at room temperature. Fluorescence microscopy images were obtained at 100× magnification.

[6] = tested on: cardiomyocytes; assay: Protein synthesis ([3H]phenylalanine incorporation) in cardiomyocytes; format: cell-based, rat; settings: rPMT 400 ng/ml or NE 10 μM, 48 hr, serum-free
Experimental: as §5
As a second index of cardiomyocyte growth, relative rates of protein synthesis were measured as radiolabeled phenylalanine incorporation into cell protein. Cells were stimulated in serum-free medium with agonists (or vehicle as control) for 48 hr at 37° C. The medium was replaced with serum-free medium containing [^3H]phenylalanine (0.1 μCi/ml) and non-radioactive phenylalanine (0.3 mM, to minimize variations in the specific activity of the precursor pool responsible for protein synthesis) during the final 24 hr of stimulation. Cells were rinsed with PBS and incubated in 10% trichloroacetic acid for 30 min on ice. […] Aliquots of the SDS-soluble protein were counted in 5 ml of scintillant.

[7] = tested on: ANF mRNA; assay: Northern blot analysis of ANF mRNA in cardiomyocytes; format: cell-based, rat; settings: rPMT 400 ng/ml or NE 10 μM, 48 hr, serum-free
Experimental: as §5
Total RNA from neonatal rat cardiomyocytes were isolated by using a Qiagen kit according to manufacturer's instructions. A rat ANF cDNA probe (˜600 bp) was labeled with [^32P]dCTP. 10 μ/g of total RNA was separated on a 1% agarose gel and transferred to a nylon membrane (Amersham). Prehybridization and hybridization were performed according to standard methods. Normalization of signals was performed with a glyceraldehyde-3-phosphate dehydrogenase probe. Signals were detected by Phosphorimage analysis.

[8] = tested on: AKT; assay: Phospho-AKT and total AKT Western blot in cardiomyocytes; format: cell-based, rat; settings: 5 min; PMA 100 nM, NE 10 μM
Experimental: rPMT decreases basal AKT phosphorylation and prevents its phosphorylation by EGF. Neonatal rat cardiomyocytes were treated with rPMT (400 ng/ml) for 24 hr (Panel A), 48 hr (Panel B) or with EGF (50 ng/ml) for 5 min. Cell lysates were subjected to SDS-PAGE followed by Western blotting with antibodies that recognize the phosphorylated form or total AKT. Data are from representative gels, with similar results obtained in 3 separate experiments.
Panel A: Cells were treated with norepinephrine (NE, 10 μM) or PMA (100 nM) for 5 min without or with GF109203 (5 μM).
Panel B: Cells were treated with rPMT (400 ng/ml), NE (10 μM) or PMA (100 nM) for 24 hr without or with Go6983 (5 μM). […] Cell lysates were subjected to SDS-PAGE followed by Western blotting using a specific anti-phospho-AKT antibody. Data are from representative gels, with similar results obtained in 3 separate culture preparations.
as §4

[9] = tested on: cardiomyocytes; assay: Tolerance of cardiomyocytes to prolonged incubation with inhibitor; settings: prolonged (24 hr) incubations

## OO [H202, reference compound]
[1]
  apoptosis (TUNEL): induces apoptosis

## NC[C@H](O)c1ccc(O)c(O)c1 [NE, norepinephrine, reference compound]
[2]
  abundance of PKCδ and PKCε in the soluble fraction: significantly reduce
[3]
  abundance and subcellular distribution of PKCα and PKCλ: is not altered
[4]
  PKC-ε phosphorylation/activation (phospho-PKC band pattern): slower mobility, more-highly phosphorylated species
[5]
  cell size (cellular enlargement): induce marked cellular enlargement
  myofibrillar (sarcomeric) organization: promote myofibrillar organization
[6]
  [3H]phenylalanine incorporation (protein synthesis): enhance [^3H]phenylalanine incorporation
[7]
  ANF mRNA expression: induce ANF mRNA expression
[8]
  basal AKT phosphorylation after acute treatment: not

## CC(=O)c1c(O)c(C)c(O)c(Cc2c(O)c3c(c(C(=O)/C=C/c4ccccc4)c2O)OC(C)(C)C=C3)c1O [rottlerin]
[9]
  tolerance of cardiomyocytes to the inhibitor: do not tolerate
